# Results published in ChEMBL document CHEMBL1158311, “Fusaricide, a new cytotoxic N-hydroxypyridone from Fusarium sp” (J Nat Prod, 1996).
# Experiments:
# [1] = Inhibition of HIV1 recombinant Rev protein expressed in Escherichia coli binding to HIV1 Rre RNA by liquid scintillation assay; parameters: species or system Human immunodeficiency virus 1
# [2] = tested on: M109; test: Antitumor activity against mouse M109 cells; type: functional
# [3] = Ratio of IC50 for R17 activity to IC50 for HIV1 Rev activity
# [4] = tested on: Candida albicans; test: Antifungal activity against Candida albicans; type: functional
# [5] = tested on: Penicillium chrysogenum; test: Antifungal activity against Penicillium chrysogenum; type: functional
# [6] = Inhibition of R17 coat protein binding to [33P]labeled R17 operator RNA
smiles,measurement,setting,value
CC[C@@H]1Oc2ccn(O)c(=O)c2[C@H]2[C@H](C)C[C@H](C)C[C@]12C [FUSARICIDE],IC50,[1],40 µg/mL
same,Activity,[2],1 µg/mL
same,Ratio IC50,[3],< 2
same,MIC,[4],16 µg/mL
same,MIC,[5],8 µg/mL
same,IC50,[6],75 µg/mL
